The values below come from article PMC10096123, “14-Substituted Diquinothiazines as a New Group of Anticancer Agents” (Molecules, 2023).

Each structure is given as a SMILES string. Entries after “also recorded” stand apart in the source; their conditions may differ.

For one series, the system named is A549 cells. The series is described as follows: 72-h MTT viability assay, A549. It counts as cell-based, human. As to conditions: 72 h incubation, mean of 3 experiments +/-SD. The text has this: (§1) The IC50 for cell viability was described with a dose of the drug, with a 50% reduction in the whole population, when compared to the untreated controls. The obtained results allow for a comparison of different compounds, using the same or different targeted cell lines. Cell survival fractions (SF), followed by the MTT 72-h viability assay for the HCT116 and SH-5YSY cells, are presented in the Supplementary File (Figure S1).
(§2) For cytological studies, human cancer cell lines were chosen, with special emphasis on the colorectal, HCT116, and neuroblastoma SH-5YSY cell lines, as well as lung normal epithelial BEAS-2B and cancer H1299 and A549 cancer cell lines (all obtained from the ATTC collection; Manassas, VA, USA). The cells were harvested under the standard conditions in incubator (5% CO2, 37 °C and 60% humidity; Panasonic model MCO-19 AIC). Cells were cultured in T75 mL sterile bottles (Sartedt), using DMEM-F12 medium (Merck, Poznań, Poland) supplemented with 10% of Fetal Bovine Serum (EURx, Gdańsk, Poland). During the experimental procedure, each cell line wasn’t more than 60–80% confluenced, no older than maximal number of passages 30. For adherent cell passages, the enzyme trypsin working solution, prepared in sodium phosphate buffer saline (PBS, pH = 7.4; PAN-Biotech Gmbh, Aidenbach, Germany), was used. The tested compounds were prepared as […] stocks in 100% DMSO (Merck, Poznań, Poland), and were stored at −20 °C. Before use in cytological studies, the working solution of each compound was prepared directly in complete DMEM-F12 medium. A positive-control, anticancer drug, etoposide (Merck, Poznań, Poland), was dissolved and prepared as solutions with doses of 20, 10, 5, 2.5, 1.25, 0.63 µM (0 µM for control, untreated cells in DMEM-F12 without any tested compound additions), respectively.
(§3) HCT116 and SH-5YSY cells collected after trypsinization were counted under the Bürker’s chamber, and 2000 or 5000 cells were seeded on each well of the 96-well-format sterile plate (Sarstedt, Nümbrecht, Germany), in 100 µL of complete DMEM-F12 medium, respectively. Twenty-four hours before compound addition, the cells were monitored directly on plates; only well-attached cells were used for treatments with background controls (DMSO with final maximal concentration of 1%) and untreated controls. The normal lung (BEAS-2B) and cancer (H1299 and […]) cell lines were cultured and prepared for viability MTT assay in similar way. To treat wells, 100 µL of tested compounds in fresh medium were added at concentration range of 100, 50, 25, 12.5, 6.25, 3.13 µM (0 µM for control, untreated cells in DMEM-F12 without any tested compound additions). An etoposide as a positive control, as anticancer drug, was prepared in similar way. Followed by 72 h of incubation, the viability assay was performed according to the producer protocol (Promega, Madison, WI, USA), where the medium and compounds were removed and cells were washed with PBS solution. A yellow tetrazolium salt (3-(4,5-dimethylthiazol-2-yl)-2,5-diphenyltetrazolium bromide solution (0.5 mg/mL) in serum and phenol red-free DMEM (Merck, Poznań, Poland) was added to each well on plates at a volume of 50 µL for 2–3 h of darkness, at 37 °C incubation. The purple formazan crystals were produced only by the viable cells, containing NAD (P)H-dependent oxidoreductase enzymes, which reduce the MTT. The crystals were dissolved in acidic (0.04 M HCl) 2-propanolol solution (Merck, Poznań, Poland) after addition of 75 µL of dissolving mixture to each well on plates for 5–10 min in darkness and at room-temperature (RT) incubation. The absorption at 570 nm was measured directly using multiplate reader (Epoch, BioTek, Winooski, VT, USA). Each time, the biological experiments were repeated three times.
(§4) Obtained absorbance was analyzed for proliferation and survival fraction (SF) assessments, where tested samples were compared to the untreated controls (100%). […]

In the next series the test system is H1299 cells. The experiment in a line: 72-h MTT viability assay, H1299. Conditions: Homo sapiens, NCI-H1299, 72 h, 72 h incubation, mean of 3 experiments +/-SD. It counts as cell-based, human.
Description: as §1, §2, §3, §4
(Tetrazolium assays rely on reduction of a dye to a coloured formazan, in cell work by metabolically active cells.)

The test system of a further series is SH-SY5Y cells. The experiment in a line: 72-h MTT viability assay, SH-SY5Y. As to conditions: 72 h incubation, mean of 3 experiments +/-SD, no effect = viability (SF) similar to control, about 100%; for IC50: Homo sapiens, SH-SY5Y. In kind it is cell-based, human.
Description: as §1, §2, §3, §4

Another series has as its system HCT116 cells. The series is described as follows: 72-h MTT viability assay, HCT116. In kind it is cell-based, human. As to conditions: 72 h incubation, mean of 3 experiments +/-SD.
Description: as §1, §2, §3, §4

In the next series the test system is BEAS-2B cells. The experiment in a line: 72-h MTT viability assay, normal lung epithelial BEAS-2B. Conditions: 72 h incubation, mean of 3 experiments +/-SD, no effect = viability (SF) similar to control, about 100%; for IC50: Homo sapiens, BEAS-2B. In kind it is cell-based, human.
Description: as §1, §2, §3, §4

On to `CCN(CC)CCN1c2c(cnc3ccccc23)Sc2cnc3ccccc3c21` [Compound 2f], for which the IC50 (as a rule, the concentration needed to halve the response being measured) in the series with A549 cells (Homo sapiens, A549, 72 h) is 27.9 ± 2.07 µM; in the series on H1299 cells, 22.2 ± 3.83 µM; with HCT116 cells (Homo sapiens, HCT-116, 72 h), 16.9 ± 1.73 µM; in the series on BEAS-2B cells it was 122 ± 12 µM. The “IC50 SH-SY5Y” value in the series with SH-SY5Y cells was “inactive; also recorded: no effect”.

Turning to `N#Cc1ccc(N2c3c(cnc4ccccc34)Sc3cnc4ccccc4c32)cc1` [Compound 3a, 14-(4-cyanophenyl)diquinothiazine], the melting point (in general, the temperature, or range, at which the solid turns liquid) was > 300 °C. Moreover, 84.9 ± 12.1 µM corresponded to half-maximal inhibition in the series with A549 cells (Homo sapiens, A549, 72 h) (IC50). The same compound displayed an IC50 with H1299 cells of 3.7 ± 0.91 µM. Besides, in the series with SH-SY5Y cells, the “IC50 SH-SY5Y” value is “inactive; also recorded: no effect”. In the series with HCT116 cells, this compound displayed a half-inhibitory concentration (IC50) of 4.9 ± 1.97 µM. Moreover, in the series on HCT116 cells (Homo sapiens, HCT-116, 72 h), the concentration for half-maximal inhibition (IC50) was < 8.6 µM. Further, the “IC50 BEAS-2B” value in the series on BEAS-2B cells is on record as “no effect”.

`CS(=O)(=O)NCCN1c2c(cnc3ccccc23)Sc2cnc3ccccc3c21` [Compound 6a, 14-methanesulfonylaminoethyldiquinothiazine] displayed a melting point of 229 to 230 °C. Besides, in the series with A549 cells (Homo sapiens, A549, 72 h), inhibition was half-maximal at 65.4 ± 14.1 µM (IC50). In the series with H1299 cells, the IC50 is 36.9 ± 6.06 µM. In addition, the “IC50 SH-SY5Y” value with SH-SY5Y cells is “inactive; also recorded: no effect”. The same compound showed a half-inhibitory concentration (IC50) in the series on HCT116 cells (Homo sapiens, HCT-116, 72 h) of 20.2 ± 1.01 µM. The “IC50 BEAS-2B” value with BEAS-2B cells is on record as “no effect”.

With `CC(=O)NCCCN1c2c(cnc3ccccc23)Sc2cnc3ccccc3c21` [Compound 5b, 14-acetylaminopropyldiquinothiazine], the melting point is 171 to 172 °C. In the series with A549 cells (Homo sapiens, A549, 72 h), this compound returned a half-maximal inhibitory concentration (IC50) of 56.5 ± 15.6 µM. The same compound gave an IC50 with H1299 cells of 23.5 ± 1.97 µM. Further, the 50% inhibitory concentration (IC50) in the series on SH-SY5Y cells stood at 21.4 ± 4.02 µM. This compound returned an IC50 in the series on HCT116 cells (Homo sapiens, HCT-116, 72 h) of 17.7 ± 1.53 µM. The compound further registered an IC50 in the series on BEAS-2B cells of 86.9 ± 9.67 µM.

As to `c1ccc2c3c(cnc2c1)Sc1cnc2ccccc2c1N3CCN1CCCC1` [Compound 2a, 14-(pyrrolidinylethyl)diquinothiazine], the concentration for half-maximal inhibition (IC50) was 13.3 ± 2.23 µM in the series with A549 cells (Homo sapiens, A549, 72 h); 8.1 ± 1.83 µM in the series with H1299 cells; 6.5 ± 1.22 µM with SH-SY5Y cells; 11.1 ± 3.39 µM in the series on HCT116 cells (Homo sapiens, HCT-116, 72 h); 84.5 ± 11.1 µM with BEAS-2B cells.

`COc1cc([C@@H]2c3cc4c(cc3[C@@H](O[C@@H]3O[C@@H]5CO[C@@H](C)O[C@H]5[C@H](O)[C@H]3O)[C@H]3COC(=O)[C@H]23)OCO4)cc(OC)c1O` [etoposide, reference compound]: the half-inhibitory concentration (IC50) with A549 cells is 4.48 ± 0.21 µM; with A549 cells (listed as etopiside), 44.8 µM; in the series with H1299 cells it was 0.6 ± 0.16 µM; in the series with SH-SY5Y cells it was 3.9 ± 0.76 µM; with HCT116 cells (Homo sapiens, HCT-116, 72 h), 8.6 ± 1.42 µM; in the series with BEAS-2B cells, 0.00311 ± 0.0002 µM.

On to `FC(F)(F)c1ccc(N2c3c(cnc4ccccc34)Sc3cnc4ccccc4c32)cc1` [Compound 3b, 14-(4-trifluoromethylphenyl)diquinothiazine], for which the melting point was 292 to 293 °C. In the series with A549 cells (Homo sapiens, A549, 72 h), this compound yielded a concentration for half-maximal inhibition (IC50) of 42.5 ± 16.5 µM. The midpoint of inhibition in the series on H1299 cells, the IC50, lay at 14.6 ± 1.92 µM. In addition, the “IC50 SH-SY5Y” value in the series on SH-SY5Y cells was “inactive; also recorded: no effect”. This compound had a half-inhibitory concentration (IC50) in the series on HCT116 cells (Homo sapiens, HCT-116, 72 h) of 17.1 ± 4.81 µM. In the series with BEAS-2B cells, this compound came in with a concentration for half-maximal inhibition (IC50) of 86.1 ± 11 µM.

With `O=C1CCCN1CCCN1c2c(cnc3ccccc23)Sc2cnc3ccccc3c21` [Compound 2b, 14-(pyrrolidinonylpropyl)diquinothiazine], the IC50 in the series with A549 cells (Homo sapiens, A549, 72 h) worked out at 12.4 ± 2.25 µM; in the series with H1299 cells it was 5.3 ± 1.04 µM; with SH-SY5Y cells it was 7.7 ± 2.59 µM; with HCT116 cells (Homo sapiens, HCT-116, 72 h) it was 9.4 ± 4.41 µM; in the series on BEAS-2B cells it was 83.5 ± 12.3 µM.
